The source of these data is patent publication US10508092B2, “Synthesis of novel analogs of diptoindonesin G, compounds formed thereby, and pharmaceutical compositions containing them” (Wisconsin Alumni Research Foundation, priority 2016, dated 2019).

“And” between values parts separate entries of the source, which are not always exact repeats. Equal entries are not always repeated.

Usually melting point stands for the temperature of the solid-liquid transition.

The conditions of data set [1]: patients, high dose administration of fulvestrant (500 mg); cited from earlier work.
For data set [2], the system named is estrogen receptor β (ERβ). Kind of data set: Western blot of FLAG-ERβ levels in Hs578T-ERβLuc Dox-inducible cells. The settings on record: Hs578T-ERβLuc Dox-inducible line, 10 μM, 5 days, Western blot (anti-FLAG). The format is cell-based, human. On the procedure:
FIGS. 2A, 2B, and 2C together depict the biological activity of the subject compounds on estrogen receptor β (ERβ) levels in human breast cancer cells.
The biological activity of these four analogs were then compared with the parent compound Dip G following our previous protocol (Zhao et al., supra). See FIGS. 1A, 1B, 1C, 2A, 2B, and 2C. Cells were treated with each compound at 10 μM concentration in order to evaluate how well each modified the stability of ERα and ERβ.
MCF7 cells were treated with Dip G and analogs for 24 hours before harvesting. Hs578T-tet-on-ERβ cells (ATCC HTB-126; American Type Culture Collection, Manassas, Va.) were treated with doxycycline for 24 hours to induce ERβ expression. Then the cells were treated with compounds for 5 days before harvesting. 15 μg of total cell lysates were resolved on SDS-PAGE and Western blot analyses were performed as previously described using ERα antibody (HC-20, Santa Cruz Biotechnology, Inc., Dallas, Tex.) and anti-FLAG antibody (F7425, Sigma-Aldrich Co., LLC, St. Louis, Mo.) for ERβ.^3
In general terms: In western blotting, separated proteins are transferred to a membrane and probed.

Regarding `C[C@]12CC[C@@H]3c4ccc(O)cc4C[C@@H](CCCCCCCCC[S+]([O-])CCCC(F)(F)C(F)(F)F)[C@H]3[C@@H]1CC[C@@H]2O` (stereo partly drawn) [fulvestrant], the peak plasma concentration in data set [1] is ~20 ng/ml and ~30 nM.
Regarding `O=C1c2c(O)cc(O)cc2-c2c(-c3ccccc3)oc3cc(O)cc1c23` [Compound 14], the melting point was greater than 260 °C. For the same compound, in data set [2], the ERβ stability result is reported as “moderately stabilized”.
